Measured values as given in patent US20140377365A1, “SUSTAINED-RELEASE FORMULATION OF ROTIGOTINE” (MAP Pharmaceuticals, Inc., priority 2013, published 2014).

Assay: In situ rotigotine salt screening (precipitate formation in ethanol/HFA 227 solution formulation)
Format: physicochemical
Details: for Observation, 1 week at 5° C. / Observation, Immediate / Observation, 1 week at RT: 1 mg/mL rotigotine free base plus acid in 10% (w/w) ethanol in HFA 227; for Observation, 1 week at 5° C.: another week at 5° C. after 1 week at RT; for Observation, Immediate: immediately upon preparation; for Observation, 1 week at RT: stored 1 week at room temperature
Procedure: Rotigotine, bulk drug substance, was purchased from Chemagis (Perrigo API). A stock solution of rotigotine was prepared by dissolving rotigotine particles in ethanol at 10 mg/mL. With 1.5 mL rotigotine stock solution added to formulation bottles, each formulation bottle contained 15 mg rotigotine. For preparation of acid stock solutions, it was assumed that complete reaction or ion-pairing between rotigotine and acid. Based on the molecular weight and number of anions of each acid as listed in Table 1, acids stock solutions were prepared by dissolving the required amount in ethanol.
Each formulation bottle was filed with 1.5 mL of rotigotine stock solution and 1.0 ml, of acid stock solution. The formulation bottles (PET bottles) were then sealed with continuous valves and vortexed for 30 seconds to mix the solution well. Finally, 17.6 g of 1,1,1,2,3,3,3-heptafluoropropane (HFA227 (Mexichem)) to make a final volume of 15 mL of rotigotine formulation. All the bottles were hand shaken for 10 seconds.
All in situ salt screening samples were made as 1 mg/mL of rotigtine free base in 10% (w/w) ethanol in HFA 227. Acids corresponding to the salt forms in Table 1 were added according to the molar ratio with rotigotine for complete reaction. As 1 mg/mL was the minimal required dose at the time of experiment, all formulations were tested at this level to screen out non-solution salt formulations.
These were the rotigotine citrate, fumarate, succinate, sulfate, tartrate, xinafoate salt formulations. […] rotigotine salt formulations were immediately ruled out as the precipitate formation was not desired. All clear solution samples were stored at room temperature (RT) for 1 week. […] These were rotigotine acetate, benzoate and mesylate salt formulations. These 3 rotigotine salt formulations were also ruled out as precipitate formation is not desired. The rest of the samples remained as clear solutions (stable) at after another week at 5° C.

| Molecule | Observation, 1 week at 5° C. | Observation, Immediate | Observation, 1 week at RT | Solution formulation at the minimum required concentration (1 mg/mL, 10% (w/w) ethanol in HFA 227) |
| --- | --- | --- | --- | --- |
| rotigotine glycolate | solution | solution | solution | – |
| Fumarate | – | white precipitate | – | – |
| rotigotine citrate | – | white precipitate | – | – |
| rotigotine maleate | solution | solution | solution | stayed in solution |
| Tartrate | – | white precipitate | – | – |
| rotigotine propionate | solution | solution | solution | – |
| CC(O)C(=O)O.CCCN(CCc1cccs1)[C@H]1CCc2c(O)cccc2C1 [Lactate, rotigotine lactate] | solution | solution | solution | – |
| rotigotine pamoate | solution | solution | solution | – |
| O=S(=O)(O)O [Sulfate] | – | white precipitate | – | – |
| CC(=O)O.CCCN(CCc1cccs1)[C@H]1CCc2c(O)cccc2C1 [Acetate, rotigotine acetate] | – | solution | red precipitate | – |
| rotigotine palmitate | solution | solution | solution | – |
| Benzoate | – | solution | red precipitate | – |
| rotigotine stearate | solution | solution | solution | – |
